Source: patent publication US5475132A, “Antifungal agents based on amides containing a phenyl group” (Rhone-Poulenc Agrochimie, priority 1988, dated 1995)

Tested on: Phytophthora citrophthora
Test: Example B3: action on phytopathogenic soil fungi, growth on agar in Petri dishes
Assay type: cell-based
Details: 120 h, 30 ppm, agar medium, 22° C., 5 days, read-out: inhibition of the development of the fungus

`COc1ccc(-c2cc(Cl)ccc2C(=O)N2CCOCC2)cc1OC` [Compound 208] showed an inhibition at 30 ppm of no less than 80%.
For `CCN(C)C(=O)c1ccc(Cl)cc1-c1ccc(OC)c(OC)c1` [Compound 209], the inhibition at 30 ppm was no less than 80%.
`COCCN(C)C(=O)c1ccc(Cl)cc1-c1ccc(OC)c(OC)c1` [Compound 210] gave an inhibition at 30 ppm of no less than 80%.
With `CCN(CC)C(=O)c1ccc(Cl)cc1-c1ccc(OC)c(OC)c1` [Compound 211] the inhibition at 30 ppm was no less than 80%.
`C=C(C)c1ccc(C(=O)N(C)CC)c(-c2ccc(OC)c(OC)c2)c1` [Compound 212] was tested, and the inhibition at 30 ppm was no less than 80%.
For `C=C(C)c1ccc(C(=O)N(C)CCOC)c(-c2ccc(OC)c(OC)c2)c1` [Compound 213], the inhibition at 30 ppm was no less than 80%.
Work on `C=C(C)c1ccc(C(=O)N(CC)CC)c(-c2ccc(OC)c(OC)c2)c1` [Compound 214] yielded an inhibition at 30 ppm of no less than 80%.
In the case of `CCN(C)C(=O)c1ccc(-c2ccc(C)cc2)cc1-c1ccc(OC)c(OC)c1` [Compound 215], the inhibition at 30 ppm is reported as no less than 80%.
`COc1ccc(-c2cc(-c3ccc(C)cc3)ccc2C(=O)N(C)CCO)cc1OC` [Compound 216] was tested, and the inhibition at 30 ppm was no less than 80%.
`COc1ccc(-c2cc(-c3ccc(C)cc3)ccc2C(=O)N(C)C)cc1OC` [Compound 217] showed an inhibition at 30 ppm of no less than 80%.
In the case of `COc1ccc(-c2cc(Br)ccc2C(=O)N2CCOCC2)cc1OC` [Compound 222], the inhibition at 30 ppm is reported as no less than 80%.
With `COc1ccc(-c2c(Br)cccc2C(=O)N2CCOCC2)cc1OC` [Compound 223] the inhibition at 30 ppm was no less than 80%.
Molecule `O=C(c1ccc(Br)cc1-c1ccc2c(c1)OCO2)N1CCOCC1` [Compound 224] has an inhibition at 30 ppm of no less than 80%.
Molecule `CCN(C)C(=O)c1ccc(-c2ccc(F)cc2)cc1-c1ccc2c(c1)OCO2` [Compound 228] has an inhibition at 30 ppm of no less than 80%.
For `O=C(c1ccc(-c2ccc(F)cc2)cc1-c1ccc2c(c1)OCO2)N1CCOCC1` [Compound 229], the inhibition at 30 ppm was no less than 80%.
With `CCN(C)C(=O)c1ccc(-c2ccc(C)cc2)cc1-c1ccc2c(c1)OCO2` [Compound 230] the inhibition at 30 ppm was no less than 80%.
In the case of `Cc1ccc(-c2ccc(C(=O)N3CCOCC3)c(-c3ccc4c(c3)OCO4)c2)cc1` [Compound 231], the inhibition at 30 ppm is reported as no less than 80%.
For `COc1ccc(-c2ccc(C(=O)N3CCOCC3)c(-c3ccc(OC)c(OC)c3)c2)cc1OC` [Compound 234], the inhibition at 30 ppm was no less than 80%.
`COc1ccc(-c2cc(C=C(C)C)ccc2C(=O)N2CCOCC2)cc1OC` [Compound 235] gave an inhibition at 30 ppm of no less than 80%.
For `C=C(C)c1ccc(C(=O)N2CCOCC2)c(-c2ccc(OC)c(OC)c2)c1` [Compound 236], the inhibition at 30 ppm was no less than 80%.
`COc1ccc(-c2cc(-c3ccc(Cl)cc3)ccc2C(=O)N2CCOCC2)cc1OC` [Compound 237] gave an inhibition at 30 ppm of no less than 80%.
`COc1ccc(-c2cc(-c3ccsc3)ccc2C(=O)N2CCOCC2)cc1OC` [Compound 238] was tested, and the inhibition at 30 ppm was no less than 80%.
In the case of `COc1ccc(-c2cc(-c3ccc4c(c3)OCO4)ccc2C(=O)N2CCOCC2)cc1OC` [Compound 239], the inhibition at 30 ppm is reported as no less than 80%.
Molecule `COc1ccc(-c2nc(-c3ccccc3)ccc2C(=O)N2CCOCC2)cc1OC` [Compound 301, N-[2-(3,4-dimathoxyphenyl)-6-phenylnicotinoyl]morpholine] has an inhibition at 30 ppm of no less than 80%.
`COc1ccc(-c2nc(-c3ccc(Cl)cc3)ccc2C(=O)N2CCOCC2)cc1OC` [Compound 345] gave an inhibition at 30 ppm of no less than 80%.
`CCN(C)C(=O)c1ccc(-c2ccc(Cl)cc2)nc1-c1ccc(OC)c(OC)c1` [Compound 347] was tested, and the inhibition at 30 ppm was no less than 80%.
In the case of `COc1ccc(-c2nc(-c3ccc(F)cc3)ccc2C(=O)N2CCOCC2)cc1OC` [Compound 349], the inhibition at 30 ppm is reported as no less than 80%.
`CCN(C)C(=O)c1ccc(-c2ccc(F)cc2)nc1-c1ccc(OC)c(OC)c1` [Compound 350] showed an inhibition at 30 ppm of no less than 80%.
Molecule `COCCN(C)C(=O)c1ccc(-c2ccc(F)cc2)nc1-c1ccc(OC)c(OC)c1` [Compound 353] has an inhibition at 30 ppm of no less than 80%.
Molecule `COCCN(C)C(=O)c1ccc(-c2ccccc2)nc1-c1ccc(OC)c(OC)c1` [Compound 354] has an inhibition at 30 ppm of no less than 80%.
`COc1ccc(-c2nc(-c3ccc(C4CC4(Cl)Cl)cc3)ccc2C(=O)N2CCOCC2)cc1OC` (centres unmarked) [Compound 355] was tested, and the inhibition at 30 ppm was no less than 80%.
For `COc1ccc(-c2nc(-c3ccc(C(C)C)cc3)ccc2C(=O)N2CCOCC2)cc1OC` [Compound 356], the inhibition at 30 ppm was no less than 80%.
`C=CCN(C)C(=O)c1ccc(-c2ccccc2)nc1-c1ccc(OC)c(OC)c1` [Compound 359] gave an inhibition at 30 ppm of no less than 80%.
`COc1ccc(-c2nc(-c3ccccc3)ccc2C(=O)N(C)C(C)C)cc1OC` [Compound 360] gave an inhibition at 30 ppm of no less than 80%.
`COc1ccc(-c2nc(-c3ccc(Cl)cc3)ccc2C(=O)N(C)CC#N)cc1OC` [Compound 363] showed an inhibition at 30 ppm of no less than 80%.
`CCN(CC)C(=O)c1ccc(-c2ccc(Cl)cc2)nc1-c1ccc(OC)c(OC)c1` [Compound 364] gave an inhibition at 30 ppm of no less than 80%.
Work on `CCCN(C)C(=O)c1ccc(-c2ccccc2)nc1-c1ccc(OC)c(OC)c1` [Compound 365] yielded an inhibition at 30 ppm of no less than 80%.
Molecule `COc1ccc(-c2nc(-c3ccc(Br)cc3)ccc2C(=O)N(C)CCOC(C)=O)cc1OC` [Compound 366] has an inhibition at 30 ppm of no less than 80%.
With `COc1ccc(-c2nc(-c3ccc(Cl)cc3)c(C)cc2C(=O)N2CCOCC2)cc1OC` [Compound 367] the inhibition at 30 ppm was no less than 80%.
Molecule `COc1ccc(-c2nc(-c3ccc(F)cc3)c(C)cc2C(=O)N2CCOCC2)cc1OC` [Compound 368] has an inhibition at 30 ppm of no less than 80%.
Work on `CCN(C)C(=O)c1ccc(-c2ccccc2)nc1-c1ccc(OC)c(OC)c1` [Compound 369] yielded an inhibition at 30 ppm of no less than 80%.
`COc1ccc(-c2nc(-c3ccccc3)ccc2C(=O)N(C)C)cc1OC` [Compound 370] gave an inhibition at 30 ppm of no less than 80%.
`COc1ccc(-c2nc(-c3ccc(Cl)cc3)ccc2C(=O)N2CCCC2)cc1OC` [Compound 373] was tested, and the inhibition at 30 ppm was no less than 80%.
With `COc1ccc(-c2nc(-c3ccc(Cl)cc3)ccc2C(=O)N2CCCCC2)cc1OC` [Compound 376] the inhibition at 30 ppm was no less than 80%.
`COc1ccc(-c2nc(-c3ccc(Cl)cc3)ccc2C(=O)N2CCC(O)CC2)cc1OC` [Compound 377] was tested, and the inhibition at 30 ppm was no less than 80%.
Work on `COc1ccc(-c2nc(-c3ccc(Cl)cc3)ccc2C(=O)N(C)Cc2ccco2)cc1OC` [Compound 378] yielded an inhibition at 30 ppm of no less than 80%.
`COCCN(C)C(=O)c1ccc(-c2ccc(Cl)cc2)nc1-c1ccc(OC)c(OC)c1` [Compound 379] showed an inhibition at 30 ppm of no less than 80%.
`COc1ccc(-c2nc(-c3ccc(Br)cc3)ccc2C(=O)N(C)CCO)cc1OC` [Compound 380] gave an inhibition at 30 ppm of no less than 80%.
`COc1ccc(-c2nc(-c3ccc(Cl)cc3)ccc2C(=O)N(C)CC2CCCO2)cc1OC` (centres unmarked) [Compound 381] gave an inhibition at 30 ppm of no less than 80%.
Molecule `COc1ccc(-c2nc(-c3ccc(C#N)cc3)ccc2C(=O)N2CCOCC2)cc1OC` [Compound 382] has an inhibition at 30 ppm of no less than 80%.
`COc1ccc(-c2nc(-c3ccc(Cl)cc3)ccc2C(=O)N(C)CCO)cc1OC` [Compound 383] was tested, and the inhibition at 30 ppm was no less than 80%.
In the case of `COc1ccc(-c2nc(-c3ccc(C)cc3)ccc2C(=O)N2CCOCC2)cc1OC` [Compound 384], the inhibition at 30 ppm is reported as no less than 80%.
Molecule `COc1ccc(-c2nc(-c3ccc(Br)cc3)ccc2C(=O)N2CCOCC2)cc1OC` [Compound 385] has an inhibition at 30 ppm of no less than 80%.
Work on `C=CCN(C)C(=O)c1ccc(-c2ccc(Cl)cc2)nc1-c1ccc(OC)c(OC)c1` [Compound 386] yielded an inhibition at 30 ppm of no less than 80%.
`CCN(CC)C(=O)c1ccc(-c2ccccc2)nc1-c1ccc(OC)c(OC)c1` [Compound 388] was tested, and the inhibition at 30 ppm was no less than 80%.
For `COc1ccc(-c2ccc(C(=O)N3CCOCC3)c(-c3ccc(OC)c(OC)c3)n2)cc1` [Compound 389], the inhibition at 30 ppm was no less than 80%.
`CCN(C)C(=O)c1ccc(-c2ccc(Br)cc2)nc1-c1ccc(OC)c(OC)c1` [Compound 390] showed an inhibition at 30 ppm of no less than 80%.
`COc1ccc(-c2nc(-c3ccccc3C)ccc2C(=O)N2CCOCC2)cc1OC` [Compound 391] gave an inhibition at 30 ppm of no less than 80%.
For `COc1ccc(-c2nc(-c3ccccc3Cl)ccc2C(=O)N2CCOCC2)cc1OC` [Compound 392], the inhibition at 30 ppm was no less than 80%.
In the case of `COCCN(C)C(=O)c1ccc(-c2ccc(Br)cc2)nc1-c1ccc(OC)c(OC)c1` [Compound 393], the inhibition at 30 ppm is reported as no less than 80%.
Work on `COc1ccc(-c2nc(-c3ccc(Cl)cc3)ccc2C(=O)N(C)OC)cc1OC` [Compound 394] yielded an inhibition at 30 ppm of no less than 80%.
For `COc1ccc(-c2nc(-c3ccccc3)ccc2C(=O)N(C)CCO)cc1OC` [Compound 395], the inhibition at 30 ppm was no less than 80%.
Molecule `COc1ccc(-c2nc(-c3ccccc3)ccc2C(=O)N(C)CCOC(C)=O)cc1OC` [Compound 396] has an inhibition at 30 ppm of no less than 80%.
`COc1ccc(-c2nc(-c3ccc(Cl)cc3)ccc2C(=O)N(C)CCOC(C)=O)cc1OC` [Compound 397] was tested, and the inhibition at 30 ppm was no less than 80%.
`COc1ccc(-c2nc(-c3ccc(Cl)cc3)ncc2C(=O)N2CCOCC2)cc1OC` [Compound 407, 2-(4-Chlorophenyl)-4-(3,4-dimethoxyphenyl)-5-morpholinocarbonylpyrimidine] was tested, and the inhibition at 30 ppm was no less than 80%.
In the case of `COc1ccc(-c2nc(-c3ccccc3)ncc2C(=O)N2CCOCC2)cc1OC` [Compound 414], the inhibition at 30 ppm is reported as no less than 80%.
`CCN(C)C(=O)c1cnc(-c2ccccc2)nc1-c1ccc(OC)c(OC)c1` [Compound 415] showed an inhibition at 30 ppm of no less than 80%.
`COCCN(C)C(=O)c1cnc(-c2ccccc2)nc1-c1ccc(OC)c(OC)c1` [Compound 416] was tested, and the inhibition at 30 ppm was no less than 80%.
Work on `CCN(CC)C(=O)c1cnc(-c2ccc(Cl)c(Cl)c2)nc1-c1ccc(OC)c(OC)c1` [Compound 420] yielded an inhibition at 30 ppm of no less than 80%.
`COc1ccc(-c2nc(-c3cccc(C(F)(F)F)c3)ncc2C(=O)N2CCOCC2)cc1OC` [Compound 425] gave an inhibition at 30 ppm of no less than 80%.
For `COc1ccc(-c2nc(-c3cccc(C(F)(F)F)c3)ncc2C(=O)O)cc1OC` [Compound 426], the inhibition at 30 ppm was no less than 80%.
Work on `COc1ccc(-c2nc(-c3ccc(Br)cc3)ncc2C(=O)N2CCOCC2)cc1OC` [Compound 427] yielded an inhibition at 30 ppm of no less than 80%.
`CCN(C)C(=O)c1cnc(-c2cccc(C(F)(F)F)c2)nc1-c1ccc(OC)c(OC)c1` [Compound 428] was tested, and the inhibition at 30 ppm was no less than 80%.
`CCN(CC)C(=O)c1cnc(-c2cccc(C(F)(F)F)c2)nc1-c1ccc(OC)c(OC)c1` [Compound 429] was tested, and the inhibition at 30 ppm was no less than 80%.
Molecule `CCN(CC)C(=O)c1cnc(-c2ccc(Br)cc2)nc1-c1ccc(OC)c(OC)c1` [Compound 430] has an inhibition at 30 ppm of no less than 80%.
`COc1ccc(-c2nc(Oc3ccc(C)cc3)ncc2C(=O)N2CCOCC2)cc1OC` [Compound 433, 4-(3,4-dimethoxyphenyl)-2-(4-methylphenoxy)-5-morpholinocarbonylpyrimidine] gave an inhibition at 30 ppm of no less than 80%.
`COc1ccc(-c2nc(SCc3ccccc3)ncc2C(=O)N2CCOCC2)cc1OC` [Compound 434] showed an inhibition at 30 ppm of no less than 80%.
